Where “and” joins values, the source holds several entries; their conditions need not be identical. Equal entries are not always repeated. Where two headings read alike, the source gives them in different places. Marks after values point to notes of the source that are not given here.
How the values were obtained:
[1] = tested on: rat anti-collagen IgG1 antibodies; assay: Rat anti-collagen IgG1 antibodies in serum of CIA rats at day 21; type: in vivo, Lewis rat; details: Group 4 (CIA + GSK620)
Protocol: Blood was additionally collected from groups 1-7 via cardiac puncture following euthanasia on Day 21. […] Serum was divided into two separate tubes and stored at −75±15° C. One tube was used to analyze IgG1, and the other tube was reserved for additional analyses.

IL-17A = IL-17A levels by ELISA in stimulated human peripheral blood mononuclear cells; type: cell-based; details: Homo sapiens, PBMC
Protocol: (§1) CD2, CD3, and CD28 antibody-coated beads from the T-cell activation/expansion kit (Miltenyi Biotec) were added to the PBMC at a bead-to-cell ratio of 1:2.
(§2) The mixture of PBMCs and beads were seeded into the wells of the round-bottom 96-well plate at a concentration of 2×10^5 cells/well in a total volume of 200 μL. The cells were cultured for 72 hours at 37° C. and 5% CO2 and then supernatants were collected and IL-17A and IL-22 levels were measured by ELISA. […] The final compound concentration ranged from 30,000 nM to 0.005 nM and the final DMSO concentration per well was 0.3%. PBMCs were seeded at approximately 2×10^5 cells/well in the wells of the 96-well tissue culture plate in a total volume of 190 μL. The plate was incubated for 1 hour at 37° C. and 5% CO2. […] The cells were then cultured for 24 hours at 37° C. and 5% CO2. The supernatant was collected and CXCL10 levels were measured by ELISA.

[2] = Pharmacokinetics and plasma concentration of Example 101 in Lewis rats after oral administration (CIA study); type: in vivo, Lewis rat; details: Day 21, Group 4 (CIA + GSK620)
IL-22 = IL-22 levels by ELISA in stimulated human peripheral blood mononuclear cells; type: cell-based; details: Homo sapiens, PBMC
Protocol: as §1, §2

CXCL10 = CXCL10 levels by ELISA in IFN-γ stimulated human peripheral blood mononuclear cells; type: cell-based; details: human PBMC
Protocol: The impact of Examples 23, 80, and 101 on IL-17A, IL-22, and CXCL10 levels was analyzed in cryopreserved human peripheral blood mononuclear cells (PBMC) by ELISA. […] For IL-17A and IL-22 assays, Examples 23, 80, and 101 were serially diluted from 10 mM in DMSO and further diluted in assay media to 100× the required final concentration, of which, 2 μL was added per well to a round-bottom 96-well tissue culture plate where the final DMSO concentration per well was 0.1%. CD2, CD3, and CD28 antibody-coated beads from the T-cell activation/expansion kit (Miltenyi Biotec) were added to the PBMC at a bead-to-cell ratio of 1:2.
The mixture of PBMCs and beads were seeded into the wells of the round-bottom 96-well plate at a concentration of 2×10^5 cells/well in a total volume of 200 μL. The cells were cultured for 72 hours at 37° C. and 5% CO2 and then supernatants were collected and IL-17A and IL-22 levels were measured by ELISA. For the CXCL10 assay, Examples 23, 80, and 101 were serially diluted from 10 mM in DMSO and further diluted in assay media to 100× the required final concentration, of which 2 μL was added per well to a 96-well tissue culture plate. The final compound concentration ranged from 30,000 nM to 0.005 nM and the final DMSO concentration per well was 0.3%. PBMCs were seeded at approximately 2×10^5 cells/well in the wells of the 96-well tissue culture plate in a total volume of 190 μL. The plate was incubated for 1 hour at 37° C. and 5% CO2. The cells were then stimulated with IFN-γ (15 ng/mL final concentration) in a volume of 10 μL. The cells were then cultured for 24 hours at 37° C. and 5% CO2. The supernatant was collected and CXCL10 levels were measured by ELISA.

[3] = tested on: collagen-induced arthritis; details: rat, in vivo, po

CNC(=O)c1cc(C(=O)NC2CC2)cn(Cc2ccccc2)c1=O [GSK620]
Average rat anti-collagen IgG1 levels, Mean ([1]; day 21, group mean): 7532.82* | Final Rat Anti-Collagen IgG1 Antibody Con. ([1]; day 21, per animal): 9149.39 units/ml and 10971.56 units/ml and 258.62 units/ml and 1400.18 units/ml and 15017.25 units/ml and 2682.44 units/ml and 9308.00 units/ml and 11475.12 units/ml | Rat Anti-Collagen IgG1 Antibody Con. ([1]; before multiplying by Fold 2000, day 21, per animal): 4.57 units/ml and 5.49 units/ml and 0.13 units/ml and 0.70 units/ml and 7.51 units/ml and 1.34 units/ml and 4.65 units/ml and 5.74 units/ml | IC50 (IL-17A; Test Subject 1, read-out: IL-17A IC50): 80.5 nM | IC50 (IL-17A; Test Subject 2, read-out: IL-17A IC50): 59.7 nM | IC50 (IL-17A; Test Subject 3, read-out: IL-17A IC50): 139 nM | IC50 (IL-17A; mean of test subjects, read-out: IL-17A IC50 Mean): 93.2 nM | Plasma concentration ([2]; per animal): 1590 ng/mL and 4170 ng/mL and 3070 ng/mL and 2740 ng/mL and 1760 ng/mL and 3230 ng/mL and 3450 ng/mL and 2540 ng/mL | concentration at 21 day ([2]; Lewis, rat, plasma, oral, read-out: Mean Plasma Concentration): 2820 ng/mL | IC50 (IL-22; Test Subject 1, read-out: IL-22 IC50): 231 nM | IC50 (IL-22; Test Subject 2, read-out: IL-22 IC50): 21.6 nM | IC50 (IL-22; Test Subject 3, read-out: IL-22 IC50): 106 nM | IC50 (IL-22; mean of test subjects, read-out: IL-22 IC50 Mean): 120 nM | IC50 (CXCL10; Test Subject 1, read-out: CXCL10 IC50): > 30 µM | IC50 (CXCL10; Test Subject 2, read-out: CXCL10 IC50): > 30 µM | IC50 (CXCL10; Test Subject 3, read-out: CXCL10 IC50): > 30 µM | IC50 (CXCL10; mean of test subjects, read-out: CXCL10 IC50 Mean): > 30 µM | body weight over the course of the study [3]: modest weight gains over the first 13 days of the study followed by weight loss | diarrhea over the 21-day period [3]: did not have diarrhea | increase in body weight, day 21 compared to day 0 [3]: 0.8%

Source: patent US20250263370A1 (Tay Therapeutics Limited, priority 2022, published 2025)
